Test results published in ChEMBL document CHEMBL3885881, “DrugMatrix”.

Species: Rattus norvegicus
Assay: DrugMatrix - Regimen: Daily Repeat
Type: toxicity, organism-based, Sprague-Dawley
Design: regimen Daily Repeat, gender Male, age 6-8 weeks
Details: in vivo, po, route oral GAVAGE, vehicle .5 % CMC; for ABSOLUTE BASOPHIL / ABSOLUTE EOSINOPHIL / ABSOLUTE LYMPHOCYTE / ABSOLUTE MONOCYTE / ABSOLUTE SEGMENTED NEUTROPHIL / BASOPHIL / EOSINOPHIL / ERYTHROCYTE COUNT / HEMATOCRIT / HEMOGLOBIN / LEUKOCYTE COUNT / LYMPHOCYTE / MEAN CORPUSCULAR HEMOGLOBIN / MEAN CORPUSCULAR HEMOGLOBIN CONCENTRATION / MEAN CORPUSCULAR VOLUME / MONOCYTE / NEUTROPHIL / NUCLEATED RED BLOOD CELLS / PLATELET COUNT: tissue Blood; for ALANINE AMINOTRANSFERASE / ALBUMIN / ALKALINE PHOSPHATASE / ASPARTATE AMINOTRANSFERASE / BLOOD UREA NITROGEN / CARBON DIOXIDE / CHLORIDE / CHOLESTEROL / CREATINE PHOSPHOKINASE / CREATININE / GLUCOSE / LACTATE DEHYDROGENASE / LIPASE / PHOSPHORUS / POTASSIUM / SODIUM / TOTAL BILIRUBIN / TOTAL PROTEIN / URIC ACID: tissue Plasma
[1] = 100 mg/kg, 120 h, dose level Low, time 5 day
[2] = 2500 mg/kg, 72 h, dose level High, time 3 day
[3] = 2500 mg/kg, 120 h, dose level High, time 5 day

NC(=O)CN1CCCC1=O
ABSOLUTE BASOPHIL [1]: 0 CELLS/uL | ABSOLUTE EOSINOPHIL [1]: 42 CELLS/uL | ABSOLUTE LYMPHOCYTE [1]: 9826.67 CELLS/uL | ABSOLUTE MONOCYTE [1]: 141.33 CELLS/uL | ABSOLUTE SEGMENTED NEUTROPHIL [1]: 823.33 CELLS/uL | BASOPHIL [1]: 0% | EOSINOPHIL [1]: 0.33% | ERYTHROCYTE COUNT [1]: 5.31 x10E6/uL | HEMATOCRIT [1]: 34.1% | HEMOGLOBIN [1]: 13.87 G/DL | LEUKOCYTE COUNT [1]: 10.83 x10E3/uL | LYMPHOCYTE [1]: 90.67% | MEAN CORPUSCULAR HEMOGLOBIN [1]: 26.1 pg | MEAN CORPUSCULAR HEMOGLOBIN CONCENTRATION [1]: 40.7 G/DL | MEAN CORPUSCULAR VOLUME [1]: 64.2 fL | MONOCYTE [1]: 1.33% | NEUTROPHIL [1]: 7.67% | NUCLEATED RED BLOOD CELLS [1]: 0 /100WBC | PLATELET COUNT [1]: 1439.67 x10E3/uL | ALANINE AMINOTRANSFERASE [1]: 57.33 u/L | ALBUMIN [1]: 4.37 G/DL | ALKALINE PHOSPHATASE [1]: 345.67 u/L | ASPARTATE AMINOTRANSFERASE [1]: 81.33 u/L | BLOOD UREA NITROGEN [1]: 14 mg/dL | CARBON DIOXIDE [1]: 31 mmol/L | CHLORIDE [1]: 101.33 MEQ/L | CHOLESTEROL [1]: 79 mg/dL | CREATINE PHOSPHOKINASE [1]: 221.33 u/L | CREATININE [1]: 0.2 mg/dL | GLUCOSE [1]: 137.33 mg/dL | LACTATE DEHYDROGENASE [1]: 190.33 u/L | LIPASE [1]: 10 u/L | PHOSPHORUS [1]: 12 mg/dL | POTASSIUM [1]: 6.54 MEQ/L | SODIUM [1]: 144.03 MEQ/L | TOTAL BILIRUBIN [1]: 0.23 mg/dL | TOTAL PROTEIN [1]: 6.17 G/DL | URIC ACID [1]: 1.2 mg/dL | ABSOLUTE BASOPHIL [2]: 0 CELLS/uL | ABSOLUTE EOSINOPHIL [2]: 0 CELLS/uL | ABSOLUTE LYMPHOCYTE [2]: 13503 CELLS/uL | ABSOLUTE MONOCYTE [2]: 41.67 CELLS/uL | ABSOLUTE SEGMENTED NEUTROPHIL [2]: 1822 CELLS/uL | BASOPHIL [2]: 0% | EOSINOPHIL [2]: 0% | ERYTHROCYTE COUNT [2]: 5.25 x10E6/uL | HEMATOCRIT [2]: 34.27% | HEMOGLOBIN [2]: 13.27 G/DL | LEUKOCYTE COUNT [2]: 15.37 x10E3/uL | LYMPHOCYTE [2]: 88.33% | MEAN CORPUSCULAR HEMOGLOBIN [2]: 25.33 pg | MEAN CORPUSCULAR HEMOGLOBIN CONCENTRATION [2]: 38.77 G/DL | MEAN CORPUSCULAR VOLUME [2]: 65.3 fL | MONOCYTE [2]: 0.33% | NEUTROPHIL [2]: 11.33% | NUCLEATED RED BLOOD CELLS [2]: 0 /100WBC | PLATELET COUNT [2]: 1334.33 x10E3/uL | ALANINE AMINOTRANSFERASE [2]: 49 u/L | ALBUMIN [2]: 3.97 G/DL | ALKALINE PHOSPHATASE [2]: 347.33 u/L | ASPARTATE AMINOTRANSFERASE [2]: 74 u/L | BLOOD UREA NITROGEN [2]: 20.67 mg/dL | CARBON DIOXIDE [2]: 31 mmol/L | CHLORIDE [2]: 102.67 MEQ/L | CHOLESTEROL [2]: 67.67 mg/dL | CREATINE PHOSPHOKINASE [2]: 351.33 u/L | CREATININE [2]: 0.18 mg/dL | GLUCOSE [2]: 147.33 mg/dL | LACTATE DEHYDROGENASE [2]: 239 u/L | LIPASE [2]: 9.67 u/L | PHOSPHORUS [2]: 12.57 mg/dL | POTASSIUM [2]: 6.21 MEQ/L | SODIUM [2]: 146 MEQ/L | TOTAL BILIRUBIN [2]: 0.2 mg/dL | TOTAL PROTEIN [2]: 5.7 G/DL | URIC ACID [2]: 1.4 mg/dL | ABSOLUTE BASOPHIL [3]: 0 CELLS/uL | ABSOLUTE EOSINOPHIL [3]: 37.33 CELLS/uL | ABSOLUTE LYMPHOCYTE [3]: 8603 CELLS/uL | ABSOLUTE MONOCYTE [3]: 37.33 CELLS/uL | ABSOLUTE SEGMENTED NEUTROPHIL [3]: 1055.67 CELLS/uL | BASOPHIL [3]: 0% | EOSINOPHIL [3]: 0.33% | ERYTHROCYTE COUNT [3]: 5.53 x10E6/uL | HEMATOCRIT [3]: 34.87% | HEMOGLOBIN [3]: 14.13 G/DL | LEUKOCYTE COUNT [3]: 9.73 x10E3/uL | LYMPHOCYTE [3]: 88.67% | MEAN CORPUSCULAR HEMOGLOBIN [3]: 25.6 pg | MEAN CORPUSCULAR HEMOGLOBIN CONCENTRATION [3]: 40.53 G/DL | MEAN CORPUSCULAR VOLUME [3]: 63.17 fL | MONOCYTE [3]: 0.33% | NEUTROPHIL [3]: 10.67% | NUCLEATED RED BLOOD CELLS [3]: 0 /100WBC | PLATELET COUNT [3]: 1291.33 x10E3/uL | ALANINE AMINOTRANSFERASE [3]: 61.33 u/L | ALBUMIN [3]: 4.27 G/DL | ALKALINE PHOSPHATASE [3]: 359.33 u/L | ASPARTATE AMINOTRANSFERASE [3]: 86.33 u/L | BLOOD UREA NITROGEN [3]: 18.33 mg/dL | CARBON DIOXIDE [3]: 28.67 mmol/L | CHLORIDE [3]: 101.67 MEQ/L | CHOLESTEROL [3]: 64 mg/dL | CREATINE PHOSPHOKINASE [3]: 310 u/L | CREATININE [3]: 0.16 mg/dL | GLUCOSE [3]: 160.33 mg/dL | LACTATE DEHYDROGENASE [3]: 149.33 u/L | LIPASE [3]: 7.33 u/L | PHOSPHORUS [3]: 12.07 mg/dL | POTASSIUM [3]: 5.7 MEQ/L | SODIUM [3]: 146.23 MEQ/L | TOTAL BILIRUBIN [3]: 0.17 mg/dL | TOTAL PROTEIN [3]: 6.17 G/DL | URIC ACID [3]: 1.67 mg/dL
